Reference: US6566355B1 (Hoffmann-La Roche Inc., priority 1991, dated 2003)
Structures can show the parent of a compound that is named as a salt. Where two headings read alike, the source gives them in different places.

What was measured:
β-lactamase = target: T1, β-lactamase (Citrobacter freundii, UniProt P05193); assay: biochemical
T1 construct: Various β-lactamases can be isolated from penicillin- or cephalosporin-resistant bacterial strains such as; endogenous in cells; host or cells: Citrobacter freundii 1203 (enzyme purified from the crude cell extract, after ampicillin induction when necessary)
Procedure: A. Isolation of the β-lactamases
Various β-lactamases can be isolated from penicillin- or cephalosporin-resistant bacterial strains such as Klebsiella pneumoniae NCTC 418, Proteus vulgaris 1028, Bacillus licheniformis 749/C, Escherichia coli SN01 and Citrobacter freundii 1203. For this purpose, the corresponding strains are cultivated in Tryptic Soy Broth (Difco) and harvested by centrifugation in the last logarithmic growth phase (when necessary 50-100 mg/l of ampicillin are added to the medium towards the end of the log-phase in order to induce the β-lactamase). The thus-obtained bacterial mass is treated with 20 mM Tris-HCl buffer (pH 7.0); the cells are broken open with a French press while cooling. The mixture is centrifuged (20,000 r/min.) for 20-30 minutes and a clear crude extract is obtained.
B. Determination of the β-lactamase activity
The determination of the activity of the isolated β-lactamases can be carried out according to the method of O'Callaghan, C. H. et al. [Antimicr. Ag. Chemother., 1, 283-288 (1972)] using the chromogenic cephalosporin nitrocefin (87/312 from Glaxo). The requisite test batch contains per ml of water: 50 mM phosphate buffer (pH 7.0), 0.1 mM nitrocefin and sufficient enzyme (β-lactamase) to achieve a ΔA/min. of about 0.1. The cleavage of the substrate, which is accompanied by a change in colour, is effected at 37° C. and is followed quantitatively at 482 nm using a spectral photometer.
C. Determination of the β-lactamase-inhibiting activity of the compounds of general formula I
The above-described cleavage of the chromogenic substrate by β-lactamases (test B.) can be inhibited by the addition of compounds of general formula I (inhibitors). […] As a measurement for the affinity of the particular tested inhibitor to the β-lactamase, which is a measurement of the strength of the inhibitor, there serves that concentration which inhibits by 50% (IC 50 in nM) the cleavage of the substrate (nitrocefin) effected under the above test conditions (test B) in the absence of an inhibitor. […] The determination of the IC50 was effected by means of a graph.
(Test organism: Citrobacter freundii)

Citrobacter freundii = assay: MIC in vitro of a 1:4 combination of ceftriaxone with a compound of formula I (test D); type: cell-based
Procedure: D. Determination of the β-lactamase-inhibiting activity by combination of a compound of general formula I with ceftriaxone
The minimum inhibitory concentration in vitro (MIC in μg/ml) of a 1:4 combination of ceftriaxone with a compound of formula I against Citrobacter freundii is measured and compiled in Table 2 hereinafter.

[1] = 1:4 combination of ceftriaxone with the compound
[2] = isolated β-lactamase of Citrobacter freundii, substrate nitrocefin 0.1 mM, 15 minutes pre-incubation with inhibitor, 37° C., pH 7.0, read-out: IC 50 nM
[3] = IC 50 nM, isolated β-lactamase of Citrobacter freundii, substrate nitrocefin 0.1 mM, 15 minutes pre-incubation with inhibitor, 37° C., pH 7.0

T1 sequence (P05193 21-381): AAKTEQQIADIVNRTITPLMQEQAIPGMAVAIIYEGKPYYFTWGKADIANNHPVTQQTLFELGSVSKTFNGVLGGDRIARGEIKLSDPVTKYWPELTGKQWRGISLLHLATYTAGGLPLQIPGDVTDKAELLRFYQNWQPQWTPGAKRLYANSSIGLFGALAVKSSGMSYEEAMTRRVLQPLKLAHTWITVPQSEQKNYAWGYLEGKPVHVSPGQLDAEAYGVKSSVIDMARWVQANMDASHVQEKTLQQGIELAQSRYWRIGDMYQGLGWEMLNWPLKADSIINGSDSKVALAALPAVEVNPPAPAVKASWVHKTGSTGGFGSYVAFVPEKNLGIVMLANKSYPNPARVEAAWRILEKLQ

With `O=C(O)C(C(=O)N1CC[C@@H]2[C@H]1C(=O)N2S(=O)(=O)O)c1ccsc1` (mixture of isomers) [6(e), (R/S)-α-(1S,5R)-2-[2-carboxy-2-(3-thienyl)acetyl]-7-oxo-2,6-diazabicyclo[3.2.0]heptane-6-sulphonic acid triethylamine salt (1:1)] the IC50 (β-lactamase) was 465 nM and the “MIC” value (Citrobacter freundii; [1]) was 4 µg/mL.

With `O=C(c1cc2ccccc2[nH]1)N1CC[C@@H]2[C@H]1C(=O)N2S(=O)(=O)O` (racemic) [6(j)] the IC50 (β-lactamase; [2]) was 280 nM.

In the case of `CCN(CC)CC.Nc1nc(C(N)C(=O)N2CC[C@@H]3[C@H]2C(=O)N3S(=O)(=O)O)cs1` (mixture of isomers) [6(r), (1S,5R)-2-[DL-2-(2-Amino-4-thiazolyl)glycyl] -7-oxo-2,6-diazabicyclo[3.2.0]heptane-6-sulphonic acid triethylamine salt], the “MIC” value (Citrobacter freundii; [1]) is reported as 2 µg/mL.

With `CC(C)(C)OC(=O)N1CC[C@@H]2[C@H]1C(=O)N2S(=O)(=O)O` [1(b), sodium salt] the IC50 (β-lactamase; [2]) was 225 nM.

Work on `O=C(NCC(=O)N1CC[C@@H]2[C@H]1C(=O)N2S(=O)(=O)O)OCc1ccccc1` [4(g), Benzyl[[[(1S,5R)-7-oxo-6-sulpho-2,6-diazabicyclo[3.2.0]-hept-2-yl]carbonyl]methyl]carbamate] yielded an IC50 (β-lactamase) of 390 nM.

In the case of `CC(=O)N/C(=C\c1ccccc1)C(=O)N1CC[C@@H]2[C@H]1C(=O)N2S(=O)(=O)[O-].[Na+]` [5(f), (1S,5R)-2-[(Z)-3-α-Acetamidocinnamoyl]-7-oxo-2,6-diazabicyclo[3.2.0]heptane-6-sulphonic acid sodium salt], the “MIC” value (Citrobacter freundii; [1]) is reported as 16 µg/mL.

`CSCC[C@@H](NC(=O)c1ccccc1)C(=O)N1CC[C@@H]2[C@H]1C(=O)N2S(=O)(=O)O.[Na]` [5(h), (1S,5R)-2-[(R,S)-2-Benzamido-4-(methylthio)butyryl]-7-oxo-2,6-diazabicyclo[3.2.0]heptane-6-sulphonic acid sodium salt] was tested, and the “MIC” value (Citrobacter freundii; [1]) was 4 µg/mL.

In the case of `O=C(CNc1ccc2c(C(F)(F)F)cc(=O)oc2c1)N1CC[C@@H]2[C@H]1C(=O)N2S(=O)(=O)O` [5(n), (1S,5R)-2-[N-[2-Oxo-4-(trifluoromethyl)-2H-1-benzopyran-7-yl]glycyl]-7-oxo-2,6-diazabicyclo[3.2.0]heptane-6-sulphonic acid sodium salt], the IC50 (β-lactamase; [3]) is reported as 67 nM.

In the case of `O=C([C@H](O)c1ccccc1)N1CC[C@@H]2[C@H]1C(=O)N2S(=O)(=O)[O-].[Na+]` [6(k), (1S,5R)-2-[(R)-α-Hydroxyphenylacetyl]-7-oxo-2,6-diazabicyclo[3.4.0]heptane-6-sulphonic acid sodium salt (1:1)], the “MIC” value (Citrobacter freundii; [1]) is reported as 8 µg/mL.

For `CCN(CC)CC.O=C([C@@H](O)c1ccccc1)N1CC[C@@H]2[C@H]1C(=O)N2S(=O)(=O)O` [6(l), (1S,5R)-2-[(S)-α-Hydroxyphenylacetyl]-7-oxo-2,6-diazabicyclo[3.2.0]heptane-6-sulphonic triethylamine salt (1:1)], the “MIC” value (Citrobacter freundii; [1]) was 8 µg/mL.

`O=C(/C=C/c1ccc(O)cc1)N1CC[C@@H]2[C@H]1C(=O)N2S(=O)(=O)O` [6(t), (1S,5R)-(E)-2-[3-(4-Hydroxy-phenyl)acryloyl]-7-oxo-2,6-diazabicyclo[3.2.0]heptane-6-sulphonic acid sodium salt] gave an IC50 (β-lactamase; [3]) of 12 nM.

With `Nc1nnc(SCC(=O)Nc2nnc(SCC(=O)N3CC[C@@H]4[C@H]3C(=O)N4S(=O)(=O)O)s2)s1` [6(w), (1S,5R)-2-[5-(5-Amino-1,3,4-thiadiazol-2-ylsulfanylacetylamino)-1,3,4-thiadiazol-2-ylsulfanylacetyl]-7-oxo-2,6-diazabicyclo[3.2.0]heptane-6-sulfonic acid sodium salt] the IC50 (β-lactamase; [3]) was 22 nM.

In the case of `COC(=O)/C=C1\CN(C(=O)OCc2ccccc2)[C@@H]2C(=O)N(S(=O)(=O)O)[C@H]12` [14(a), (1S,5R)-(E)-4-Methoxycarbonylmethylene-7-oxo-6-sulpho-2,6-diazabicyclo[3.2.0]heptane-2-carboxylic acid benzyl ester sodium salt], the IC50 (β-lactamase; [3]) is reported as 32 nM.

For `NC(=O)/C=C1\CN(C(=O)OCc2ccccc2)[C@@H]2C(=O)N(S(=O)(=O)O)[C@H]12` [14(b), (1S,5R)(E)-2-Benzyloxycarbonyl-4-carbamoylmethylene-7-oxo-2,6-diazabicyclo[3.2.0]heptane-6-sulphonic acid sodium salt], the IC50 (β-lactamase; [3]) was 65 nM.

Work on `NC(=O)/C=C1/CN(C(=O)OCc2ccccc2)[C@@H]2C(=O)N(S(=O)(=O)O)[C@H]12` [14(c), (1S,5R)(Z)-2-Benzyloxycarbonyl-4-carbamoylmethylene-7-oxo-2,6-diazabicyclo[3.2.0]heptane-6-sulphonic acid sodium salt] yielded an IC50 (β-lactamase; [3]) of 826 nM.

`O=C(OCc1ccccc1)N1C[C@H](F)[C@@H]2[C@H]1C(=O)N2S(=O)(=O)O` [16(a), (1S,4S,5S)-4-Fluoro-7-oxo-6-sulpho-2,6-diazabicyclo[3.2.0]heptane-2-carboxylic acid benzyl ester sodium salt] showed an IC50 (β-lactamase; [3]) of 14 nM.

`O=C(OCc1ccccc1)N1C[C@@H](Cl)[C@@H]2[C@H]1C(=O)N2S(=O)(=O)O` [16(b), (1S,4R,5S)-2-Benzyloxycarbonyl-4-chloro-7-oxo-2,6-diazabicyclo[3.2.0]heptane-6-sulphonic acid sodium salt] was tested, and the IC50 (β-lactamase; [3]) was 334 nM.

With `O=C(NC1CCC1)N1CC[C@@H]2[C@H]1C(=O)N2S(=O)(=O)O` [17(h), (1S,5R)-2-Cyclobutylcarbamoyl)-7-oxo-2,6-diazabicyclo[3.2.0]heptane-6-sulphonic acid sodium salt] the IC50 (β-lactamase) was 145 nM.

Work on `O=C(NC1CC1)N1CC[C@@H]2[C@H]1C(=O)N2S(=O)(=O)O` [17(i), (1S,5R)-2-Cyclopropylcarbamoyl)-7-oxo-2,6-diazabicyclo[3.2.0]heptane-6-sulphonic acid sodium salt] yielded an IC50 (β-lactamase) of 245 nM.

`O=C(NCc1cccs1)N1CC[C@@H]2[C@H]1C(=O)N2S(=O)(=O)O` [17(p), (1S,5R)-2-(2-Thien-2-ylmethylcarbamoyl)-7-oxo-2,6-diazabicyclo[3.2.0]heptane-6-sulphonic acid sodium salt] was tested, and the IC50 (β-lactamase) was 383 nM.

`O=C1[C@H](NC(=O)N2CC[C@@H]3[C@H]2C(=O)N3S(=O)(=O)O)CCN1O` [17(r), sodium salt] gave an IC50 (β-lactamase; read-out: IC 50 nM, isolated β-lactamase of Citrobacter freundii, substrate nitrocefin 0.1 mM, 15 minutes pre-incubation with inhibitor, 37° C., pH 7.0) of 490 nM.

For `O=C(Nc1cccc(O)c1)N1CC[C@@H]2[C@H]1C(=O)N2S(=O)(=O)O` [17(s), (1S,5R)-2-(3-Hydroxyphenylcarbamoyl)-7-oxo-2,6-diazabicyclo[3.2.0]heptane-6-sulphonic acid sodium salt], the IC50 (β-lactamase; [3]) was 38 nM.

Compound `O=C1SCC[C@@H]1NC(=O)N1CC[C@@H]2[C@H]1C(=O)N2S(=O)(=O)O` [17(t), (1S,5R)-7-Oxo-2-(S)-(2-oxo-3-tetrahydrothienyl-carbamoyl)-2,6-diazabicyclo[3.2.0]heptane-6-sulphonic acid sodium salt] has an IC50 (β-lactamase) of 53 nM.

`O=C(Nc1ccc(O)cc1)N1CC[C@@H]2[C@H]1C(=O)N2S(=O)(=O)O` [17(w), (1S,5R)-2-(4-Hydroxyphenylcarbamoyl)-7-oxo-2,6-diazabicyclo[3.2.0]heptane-6-sulphonic acid sodium salt] gave an IC50 (β-lactamase; [3]) of 109 nM.

`CO/N=C(\C(=O)N[C@@H]1C(=O)N2C(C(=O)O)=C(CSc3nc(=O)c(=O)[nH]n3C)CS[C@H]12)c1csc(N)n1` [Ceftriaxone, ceftriaxone, reference compound] was tested, and the MIC (Citrobacter freundii; ceftriaxone alone (control), read-out: MIC) was 128 µg/mL.

For `O=C(OCc1ccccc1)N1C[C@@H](Cl)[C@@H]2[C@H]1C(=O)N2S(=O)(=O)O` [Example 15, (1S,4R,5S)-2-Benzyloxycarbonyl-4-chloro-7-oxo-2,6-diazabicyclo[3.2.0]heptane-6-sulphonic acid sodium salt], the IC50 (β-lactamase; [3]) was 630 nM.

With `COC(=O)NN1CC[C@@H]2[C@H]1C(=O)N2S(=O)(=O)[O-].[Na+]` [Example 18, Methyl (1S,5R)-7-oxo-6-sulpho-2,6-diazabicyclo[3.2.0]heptane-2-carbamate sodium salt] the “MIC” value (Citrobacter freundii; [1]) was 1 µg/mL.

In the case of `Cn1nnnc1S[C@@H]1CN(C(=O)OCc2ccccc2)[C@@H]2C(=O)N(S(=O)(=O)O)[C@@H]21` [Example 22, (1S,4R,5S)-2-Benzyloxycarbonyl-4-(1-methyl-1H-tetrazol-5-yl-thio)-7-oxo-2,6-diazabicyclo[3.2.0]heptane-6-sulphonic acid sodium salt], the IC50 (β-lactamase; [3]) is reported as 220 nM.

“(1S,5R)-(E)-3-Phenyl-acryloyl-2,6-diazabicyclo[3.2.0]heptane-6-sulphonic acid sodium salt [11(a)]” was tested, and the “MIC” value (Citrobacter freundii; [1]) was 8 µg/mL.
